{
  "source": "patent US12559474B2",
  "about": "“Triazine derivatives having virus replication inhibitory activity and pharmaceutical composition comprising the same” (priority 2021, dated 2026)",
  "key": {"SARS-CoV-2": {"tested_on": "SARS-CoV-2", "experiment": "microbe, parasite or virus in culture", "format": "cell-based", "conditions": "Severe acute respiratory syndrome coronavirus 2, VeroE6/TMPRSS2, 72 h, 50% SARS-CoV-2 infected cell death inhibitory concentration, VeroE6/TMPRSS2 cells, 3 days culture"}, "SARS-CoV-2 3CL protease": {"biological_target": "SARS-CoV-2 3CL protease (Severe acute respiratory syndrome coronavirus 2, UniProt P0DTD1)", "experiment": "biochemical", "conditions": "50% SARS-CoV-2 3CL protease inhibitory concentration, read-out: IC50"}},
  "note": "Like-named read-outs stand apart in the source and are kept apart here.",
  "data": [
    {"smiles": "CC(C)(C)OC(=O)Nc1nc2cc(Cl)c(Nc3nc(=O)n(Cc4ccc[nH]c4=O)c(=O)n3Cc3cc(F)c(F)c(F)c3)cc2s1", "note": "[Compound I-0466]", "values": [
      {"measurement": "EC50", "setting": "SARS-CoV-2; class symbols", "result": "< 1", "unit": "µM"},
      {"measurement": "IC50", "setting": "SARS-CoV-2 3CL protease; given as class symbols", "result": "< 0.1", "unit": "µM"}
    ]},
    {"smiles": "O=c1[nH]cccc1Cn1c(=O)nc(Nc2cc3cn(C4COC4)nc3cc2Cl)n(Cc2cc(F)c(F)c(F)c2)c1=O", "note": "[Compound I-0382]", "values": [
      {"measurement": "EC50", "setting": "SARS-CoV-2; class symbols", "result": "1 to 10", "unit": "µM"},
      {"measurement": "IC50", "setting": "SARS-CoV-2 3CL protease; given as class symbols", "result": "< 0.1", "unit": "µM"}
    ]},
    {"smiles": "CNc1nc2ccc(Nc3nc(=O)n(-c4cncc(C)c4)c(=O)n3Cc3cc(C#N)c(F)cc3Cl)cc2s1", "note": "[II-0421]", "values": [
      {"measurement": "EC50", "setting": "SARS-CoV-2; class symbols", "result": "< 1", "unit": "µM"},
      {"measurement": "IC50", "setting": "SARS-CoV-2 3CL protease; given as class symbols", "result": "< 0.1", "unit": "µM"}
    ]},
    {"smiles": "COc1ccc(Nc2nc(=O)n(Cc3ccc[nH]c3=O)c(=O)n2Cc2ccc(F)c(C#N)c2)c(F)c1", "note": "[Compound I-0332]", "values": [
      {"measurement": "EC50", "setting": "SARS-CoV-2; class symbols", "result": "1 to 10", "unit": "µM"},
      {"measurement": "IC50", "setting": "SARS-CoV-2 3CL protease; given as class symbols", "result": "< 0.1", "unit": "µM"}
    ]},
    {"smiles": "Cc1cncc(-n2c(=O)nc(Nc3ccc4nn(CC(F)F)cc4c3)n(Cc3cc(C#N)ccc3C)c2=O)c1", "note": "[II-0521]", "values": [
      {"measurement": "EC50", "setting": "SARS-CoV-2; CellTiter-Glo 2.0", "result": 0.22, "unit": "µM"},
      {"measurement": "IC50", "setting": "SARS-CoV-2 3CL protease; RapidFire MS", "result": 0.0034, "unit": "µM"}
    ]},
    {"smiles": "Cc1cncc(-n2c(=O)nc(Nc3cc4cn(C)nc4cc3Cl)n(Cc3cc(C#N)c(F)cc3CC(C)C)c2=O)c1", "note": "[II-0023]", "values": [
      {"measurement": "EC50", "setting": "SARS-CoV-2; class symbols", "result": "< 1", "unit": "µM"},
      {"measurement": "IC50", "setting": "SARS-CoV-2 3CL protease; given as class symbols", "result": "< 0.1", "unit": "µM"}
    ]},
    {"smiles": "CNc1cncc(-n2c(=O)nc(Nc3cc4cn(C)nc4cc3Cl)n(Cc3cc(F)c(F)c(F)c3)c2=O)c1", "note": "[II-0602]", "values": [
      {"measurement": "EC50", "setting": "SARS-CoV-2; class symbols", "result": "< 1", "unit": "µM"},
      {"measurement": "IC50", "setting": "SARS-CoV-2 3CL protease; given as class symbols", "result": "< 0.1", "unit": "µM"}
    ]},
    {"smiles": "O=c1[nH]cccc1Cn1c(=O)nc(NCC2CCCC2)n(Cc2cc(F)c(F)c(F)c2)c1=O", "note": "[II-0371]", "values": [
      {"measurement": "EC50", "setting": "SARS-CoV-2; CellTiter-Glo 2.0", "result": 13.3, "unit": "µM"},
      {"measurement": "IC50", "setting": "SARS-CoV-2 3CL protease; RapidFire MS", "result": 0.54, "unit": "µM"}
    ]},
    {"smiles": "O=c1[nH]cccc1Cn1c(=O)nc(Nc2cccc3[nH]ccc23)n(Cc2cc(F)c(F)c(F)c2)c1=O", "note": "[Compound I-0031]", "values": [
      {"measurement": "EC50", "setting": "SARS-CoV-2; CellTiter-Glo 2.0", "result": 4.06, "unit": "µM"},
      {"measurement": "EC50", "setting": "SARS-CoV-2; class symbols", "result": "1 to 10", "unit": "µM"},
      {"measurement": "IC50", "setting": "SARS-CoV-2 3CL protease; given as class symbols", "result": "0.1 to 1", "unit": "µM"},
      {"measurement": "IC50", "setting": "SARS-CoV-2 3CL protease; RapidFire MS", "result": 0.13, "unit": "µM"}
    ]},
    {"smiles": "Cn1cnc(Cn2c(=O)nc(Nc3cc4c(cc3Cl)OCC4)n(Cc3cc(F)c(F)c(F)c3)c2=O)n1", "note": "[Compound I-0482]", "values": [
      {"measurement": "EC50", "setting": "SARS-CoV-2; CellTiter-Glo 2.0", "result": 0.385, "unit": "µM"},
      {"measurement": "IC50", "setting": "SARS-CoV-2 3CL protease; RapidFire MS", "result": 0.015, "unit": "µM"}
    ]},
    {"smiles": "CNc1nc2cc(Cl)c(Nc3nc(=O)n(-c4cncc(Cl)c4)c(=O)n3Cc3cc(C#N)ccc3C)cc2o1", "note": "[II-0546]", "values": [
      {"measurement": "EC50", "setting": "SARS-CoV-2; class symbols", "result": "< 1", "unit": "µM"},
      {"measurement": "IC50", "setting": "SARS-CoV-2 3CL protease; given as class symbols", "result": "< 0.1", "unit": "µM"}
    ]},
    {"smiles": "Cn1cc2cc(Nc3nc(=O)n(Cc4cn(C)c(=O)[nH]c4=O)c(=O)n3Cc3cc(F)c(F)c(F)c3)c(Cl)cc2n1", "note": "[Compound I-0111]", "values": [
      {"measurement": "EC50", "setting": "SARS-CoV-2; class symbols", "result": "1 to 10", "unit": "µM"},
      {"measurement": "IC50", "setting": "SARS-CoV-2 3CL protease; given as class symbols", "result": "< 0.1", "unit": "µM"}
    ]},
    {"smiles": "Cc1cncc(-n2c(=O)nc(Nc3cc4cn(C)nc4cc3F)n(Cc3cc(C#N)c(F)cc3C)c2=O)c1", "note": "[II-0504]", "values": [
      {"measurement": "EC50", "setting": "SARS-CoV-2; class symbols", "result": "< 1", "unit": "µM"},
      {"measurement": "IC50", "setting": "SARS-CoV-2 3CL protease; given as class symbols", "result": "< 0.1", "unit": "µM"}
    ]},
    {"smiles": "CCOc1ccc(Nc2nc(=O)n(Cc3ccc[nH]c3=O)c(=O)n2Cc2cc(F)c(F)c(F)c2)c(Cl)c1", "note": "[Compound I-0242]", "values": [
      {"measurement": "EC50", "setting": "SARS-CoV-2; class symbols", "result": "< 1", "unit": "µM"},
      {"measurement": "IC50", "setting": "SARS-CoV-2 3CL protease; given as class symbols", "result": "< 0.1", "unit": "µM"}
    ]},
    {"smiles": "O=c1nc(Nc2cc3cn(CCO)nc3cc2Cl)n(Cc2cc(F)c(F)c(F)c2)c(=O)n1-c1cncc2ccccc12", "note": "[Compound I-0288]", "values": [
      {"measurement": "EC50", "setting": "SARS-CoV-2; CellTiter-Glo 2.0", "result": 0.747, "unit": "µM"},
      {"measurement": "IC50", "setting": "SARS-CoV-2 3CL protease; RapidFire MS", "result": 0.0058, "unit": "µM"}
    ]},
    {"smiles": "COc1ccc(Nc2nc(=O)n(Cc3cc(-c4ncco4)c[nH]c3=O)c(=O)n2Cc2cc(F)c(F)c(F)c2)cc1", "note": "[Compound I-0260]", "values": [
      {"measurement": "EC50", "setting": "SARS-CoV-2; class symbols", "result": "1 to 10", "unit": "µM"},
      {"measurement": "IC50", "setting": "SARS-CoV-2 3CL protease; given as class symbols", "result": "< 0.1", "unit": "µM"}
    ]},
    {"smiles": "O=C(O)c1ccc(Nc2nc(=O)n(Cc3ccc[nH]c3=O)c(=O)n2Cc2cc(F)c(F)c(F)c2)cc1", "note": "[Compound I-0035]", "values": [
      {"measurement": "EC50", "setting": "SARS-CoV-2; class symbols", "result": "< 1", "unit": "µM"},
      {"measurement": "IC50", "setting": "SARS-CoV-2 3CL protease; given as class symbols", "result": "1 to 10", "unit": "µM"},
      {"measurement": "IC50", "setting": "SARS-CoV-2 3CL protease; RapidFire MS", "result": 3.5, "unit": "µM"}
    ]},
    {"smiles": "COc1ccc(Nc2nc(=O)n(Cc3cc4cc(OC)ccc4[nH]c3=O)c(=O)n2Cc2cc(F)c(F)c(F)c2)cc1", "note": "[Compound I-0100]", "values": [
      {"measurement": "EC50", "setting": "SARS-CoV-2; class symbols", "result": "1 to 10", "unit": "µM"},
      {"measurement": "IC50", "setting": "SARS-CoV-2 3CL protease; given as class symbols", "result": "< 0.1", "unit": "µM"}
    ]},
    {"smiles": "CNc1nc2ccc(Nc3nc(=O)n(-c4cncc(Cl)c4)c(=O)n3Cc3cc(F)c(F)c(C#N)c3)cc2s1", "note": "[II-0387]", "values": [
      {"measurement": "EC50", "setting": "SARS-CoV-2; class symbols", "result": "< 1", "unit": "µM"},
      {"measurement": "IC50", "setting": "SARS-CoV-2 3CL protease; given as class symbols", "result": "< 0.1", "unit": "µM"}
    ]},
    {"smiles": "Cn1cnc(Cn2c(=O)nc(Nc3cc4c(C5CC5)n(C)nc4cc3Cl)n(Cc3cc(F)c(F)cc3F)c2=O)n1", "note": "[II-0446]", "values": [
      {"measurement": "EC50", "setting": "SARS-CoV-2; class symbols", "result": "1 to 10", "unit": "µM"},
      {"measurement": "IC50", "setting": "SARS-CoV-2 3CL protease; given as class symbols", "result": "< 0.1", "unit": "µM"}
    ]},
    {"smiles": "Cc1cncc(-n2c(=O)nc(Nc3cc4cn(C)nc4cc3F)n(Cc3cc(C#N)ccc3C)c2=O)c1", "note": "[II-0115]", "values": [
      {"measurement": "EC50", "setting": "SARS-CoV-2; class symbols", "result": "< 1", "unit": "µM"},
      {"measurement": "IC50", "setting": "SARS-CoV-2 3CL protease; given as class symbols", "result": "< 0.1", "unit": "µM"}
    ]},
    {"smiles": "Cn1cc2cc(Nc3nc(=O)n(-c4cncc(C5CC5)c4)c(=O)n3Cc3ccc(F)c(C#N)c3)c(Cl)cc2n1", "note": "[II-0261]", "values": [
      {"measurement": "EC50", "setting": "SARS-CoV-2; class symbols", "result": "< 1", "unit": "µM"},
      {"measurement": "IC50", "setting": "SARS-CoV-2 3CL protease; given as class symbols", "result": "< 0.1", "unit": "µM"}
    ]},
    {"smiles": "Cc1cncc(-n2c(=O)nc(Nc3cc4cn(C)nc4cc3Cl)n(Cc3ccc(F)c(C#N)c3)c2=O)c1", "note": "[II-0378]", "values": [
      {"measurement": "EC50", "setting": "SARS-CoV-2; class symbols", "result": "1 to 10", "unit": "µM"},
      {"measurement": "IC50", "setting": "SARS-CoV-2 3CL protease; given as class symbols", "result": "< 0.1", "unit": "µM"}
    ]}
  ]
}
